Data set [1] can be described thus: Evaluation of solubility of acids in glycerol (visual). The class given is physicochemical. The following applies: for Solubility (-): 10 mg of acid in 1,000 mg of glycerol at 25°C, visual, 5 grades. On the procedure: The organic acid is preferably soluble in the aerosol former at 25°C. […] When the resulting solution is colorless and transparent or the majority of the organic acid added is invisible due to dissolution, the organic acid is determined as "soluble." Since a solution of a polyol, such as glycerol, is difficult to measure at room temperature due to the high viscosity, it is desirable to observe the solution after appropriately dissolving once at a high temperature, followed by cooling to room temperature.
The evaluation was made by 5 grades from 1 of "no dissolution" to 5 of "complete dissolution." Herein, a grade of 3 or higher was regarded as "soluble."

Data set [2] is described as follows: First acid dissociation constant of the added acid. The class given is physicochemical. The following applies: in water at 25°C. On the procedure: The organic acid preferably has a first acid dissociation constant of preferably 4.0 to 5.0, more preferably 4.1 to 4.8, and further preferably 4.2 to 4.5. […] In the present invention, the term "first acid dissociation constant" indicates an acid dissociation constant in water at 25°C and is a value measured, for example, by acid-base titration, absorption spectroscopy, or capillary electrophoresis.

As to `CC(=O)CCC(=O)O` [Levulinic acid], in data set [1], the “Solubility (-)” value turned out to be 5. Moreover, the “Solubility in glycerol as an aerosol former (in words)” value in data set [1] (25°C) is recorded as “soluble”. The “First acid dissociation constant (-)” value in data set [2] worked out at 4.44.

For `O=C(O)CCCCC(=O)O` [Adipic acid], the “First acid dissociation constant (-)” value in data set [2] came out at 4.42.

For the molecule `CC(=O)C(=O)O` [Pyruvic acid], in data set [1], the “Solubility (-)” value amounted to 5. Besides, in data set [2], the “First acid dissociation constant (-)” value was determined as 2.50.

For `CCCCCCCCCCCCCCCCCCC(=O)O` [Nonadecanoic acid], in data set [1], the “Solubility (-)” value was 1. For the same molecule, in data set [2], the “First acid dissociation constant (-)” value was 5.10.

The values are drawn from patent EP3949771B1, “HEAT-NOT-BURN SMOKING ARTICLE, METHOD FOR USING SAME, AND HEAT-NOT-BURN SMOKING SYSTEM” (Japan Tobacco Inc., priority 2019, dated 2020).
